Assay [1] concerns the target hDHFR (Homo sapiens (Human), UniProt P00374). In words: hDHFR enzyme inhibition assay. In kind it is biochemical. As to the method: hDHFR: The gene for hDHFR was amplified using PCR from cDNA obtained from ATCC. The gene was inserted in a pET41 vector with a C-terminal histidine tag for affinity chromatography. The resulting construct was verified by sequencing. The hDHFR protein was expressed in E. coli and purified using a nickel affinity column.
(§1) Enzyme and inhibitor were allowed to incubate for 5 min before adding dihydrofolate to initiate the reaction. Enzyme assays were performed at least four times. IC50 values and their standard deviations were calculated in the presence of varying concentrations of inhibitor near the IC50 concentration.
(§2) Enzyme inhibition assays were performed by monitoring the rate of NADPH oxidation by the DHFR enzyme at an absorbance of 340 nm. Assays were performed in the presence of saturating concentrations of NADPH and initiated with dihydrofolate. All assays were completed at 25° C. in a buffer containing 20 mM TES pH 7.0, 50 mM KCl, 10 mM 2-mercaptoethanol, 0.5 mM EDTA and 1 mg/mL BSA. Inhibition was measured at least three times with inhibitor concentrations near the IC50 value and the average IC50 value is reported with a standard deviation.

The target in assay [2] is S. aureus DHFR (Staphylococcus aureus, UniProt P0A017). In kind it is biochemical. Conditions: for Selectivity (h/Sa): IC50 (human)/IC50 (pathogen); for IC50: average of at least three measurements. As to the method: as §2
For assay [3], the target named is S. pyogenes DHFR (Streptococcus pyogenes, UniProt Q9A091). Description: S. pyogenes DHFR enzyme inhibition assay. In kind it is biochemical. Conditions: for Selectivity (h/Sp): IC50 (human)/IC50 (pathogen); for IC50: average of at least three measurements. As to the method:
as §2

The subject of assay [4] is S. aureus 13709 (MRSA). In words: Antibacterial MIC, broth microdilution with Alamar Blue. Conditions: for Selectivity MRSA: IC50 (MCF10)/MIC (pathogen); for MIC MRSA: Table 6. In kind it is cell-based, Staphylococcus aureus. As to the method:
(§3) For susceptibility testing, 10 μL of glycerol stock was suspended in a 10 mL shake flask culture of chemically defined Isosensitest broth (Oxoid) supplemented with 2% w/v glucose. A sample of the shake flask culture was diluted to 1×10^6 cells/mL in media and added to 96-well test plates (100 μL per well) containing test compounds dispensed in DMSO (2 μL). After an incubation period (30° C.) determined from the strain specific doubling time, a 0.03% w/v aqueous solution of resazurin (10 μL) was added and the plates were allowed to incubate; each well was then scored for dye reduction.

Assay [5] has as its system Streptococcus pyogenes. The description is as above. In kind it is cell-based. Conditions: for Selectivity S. pyogenes: IC50 (MCF10)/MIC (pathogen); for MIC S. pyogenes: Table 6. How it is done: as §3
The subject of assay [6] is MCF-10 cells. In words: Mammalian cell toxicity, MCF-10. In kind it is cell-based, human. Conditions: cytotoxicity. As to the method:
(§4) Adherent cell lines were maintained in Eagle's Minimal Essential Media (Sigma-Aldrich, St. Louis, Mo., USA) with 2 mM glutamine and Earle's Balanced Salt Solution (HyClone, Logan, Utah, USA) adjusted to contain 1.5 g/L sodium bicarbonate, 0.1 mM non-essential amino acids, 1 mM sodium pyruvate and 10% fetal calf serum. Fetal calf serum used in these assays was lot matched throughout. […] Toxicity assays were conducted between passages 10-20. Target compound toxicity was measured by incubating the test compound with the cells for 4 h, washing the cells and finally treating the cells with Alamar Blue. After 12-24 h, the fluorescence of the reduced dye was measured. Fluorescence intensity as a function of test compound concentration was fit to the Fermi equation, using non-linear least squares regression analysis, to estimate IC50 values.

Assay [7] deals with HepG2 cells. Description: Mammalian cell toxicity, HepG2. It counts as cell-based. Conditions: cytotoxicity. As to the method: as §4
Assay [8] addresses CgDHFR (Candida glabrata (strain ATCC 2001 / BCRC 20586 / JCM 3761 / NBRC 0622 / NRRL Y-65 / CBS 138) (Yeast) (Nakaseomyces glabratus), UniProt Q6FPH0). Description: biochemical.
Description: CgDHFR: The gene coding CgDHFR was amplified by PCR from C. glabrata genomic DNA obtained from ATCC. The gene was inserted in a pET41 vector that includes a C-terminal histidine tag for nickel affinity chromatography. E. coli cells were transformed and the resulting plasmid was verified by sequencing. The protein was expressed in E. coli BL21(DE3) cells with isopropyl β-D-thiogalactoside induction. Following growth, the cells were lysed with BugBuster (Novagen) and centrifuged; the supernatant was loaded on a Ni-NTA column. The column was washed with 20 mM Tris (pH 8.0)/0.4 M NaCl and the protein was eluted using a gradient of 20 mM Tris (pH 8.0), 0.3 M NaCl, 20% glycerol, 0.1 mM EDTA, 2 mM DTT, 250 mM imidazole. Fractions containing CgDHFR were identified by SDS-PAGE, combined and desalted using a PD-10 column with a buffer containing 20 mM Tris pH 8.0, 20% glycerol, 0.1 mM EDTA and 2 mM DTT. The protein was concentrated to 13 mg/mL.
as §1

Assay [9] relates to C. glabrata. Description: Antifungal assay (MIC, Alamar Blue). In kind it is cell-based, Candida glabrata. Conditions: for MIC (Cg): C. glabrata, YM media. How it is done:
Antifungal assays were performed using C. glabrata as a suspension in 50% glycerol at −78° C. For susceptibility testing, a streak of stock culture was made on SDA agar and grown at 30° C. for 48 h. One pure colony of the test organism was recovered from the plate, suspended in appropriate media and grown in a 5 mL shake flask culture. A sample of the shake flask culture was diluted to 1×10^5 cells/mL in media and added to 96-well test plates (100 μL per well) containing test compounds dispensed in DMSO (1 μL). Amphotericin and ketoconazole were used as controls. After an incubation period determined from the strain specific doubling time, Alamar Blue (10 μL) was added, allowed to incubate; each well was scored for dye reduction.
Several representative compounds were also evaluated in thymidine-depleted media. It has been shown that high levels of thymidine interfere with accurate susceptibility testing of antifolates. To compensate for this, antifolates are frequently evaluated in a controlled minimal media with a low thymidine concentration. […] In addition, the compounds were also evaluated for mammalian cell toxicity using MCF-10 and HepG2 cell lines. Cellular selectivity is reported as the IC50 value for the MCF-10 human cell line divided by the MIC value (μg/mL) (Table 8).

Setting [10] is: Table 5, average of at least three measurements, read-out: IC50 human.
The mark [11] stands for this setting: Table 7, read-out: IC50 (CgDHFR).

SMILES strings stand for the structures. Converted amounts (≈) assume the structure as drawn. Where two headings read alike, the source gives them in different places.

The text below walks through data of US8853228B2, “Heterocyclic analogs of propargyl-linked inhibitors of dihydrofolate reductase” (University of Connecticut, priority 2011, dated 2014).

Chain of S. pyogenes DHFR (Q9A091 1-165): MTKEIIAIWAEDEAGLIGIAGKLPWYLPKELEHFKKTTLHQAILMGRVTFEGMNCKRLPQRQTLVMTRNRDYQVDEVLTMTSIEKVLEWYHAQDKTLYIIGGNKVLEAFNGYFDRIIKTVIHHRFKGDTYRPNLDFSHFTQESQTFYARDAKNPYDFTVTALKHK
Chain of hDHFR (P00374 whole entry): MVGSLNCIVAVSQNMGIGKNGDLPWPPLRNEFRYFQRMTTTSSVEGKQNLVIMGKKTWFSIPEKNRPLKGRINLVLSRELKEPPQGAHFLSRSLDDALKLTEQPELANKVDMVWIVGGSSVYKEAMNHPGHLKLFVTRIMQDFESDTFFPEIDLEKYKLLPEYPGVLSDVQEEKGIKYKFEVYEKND
Chain of CgDHFR (Q6FPH0 1-217): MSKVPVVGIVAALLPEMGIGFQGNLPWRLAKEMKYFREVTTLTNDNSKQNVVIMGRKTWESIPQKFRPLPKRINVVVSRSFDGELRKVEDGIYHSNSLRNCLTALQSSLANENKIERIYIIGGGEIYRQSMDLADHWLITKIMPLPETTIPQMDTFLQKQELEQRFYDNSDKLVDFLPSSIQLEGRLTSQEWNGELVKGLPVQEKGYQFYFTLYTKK

In general, IC50 refers to the concentration that inhibits the measured activity by half. For `CCc1nc(N)nc(N)c1C#CCc1cccc(-c2ccncc2)c1` [Compound 151], the IC50 in assay [1] (setting [10]) is 520 ± 23 nM; in assay [2], 20 ± 0.5 nM; in assay [3], 30 ± 1.7 nM; in assay [6] (Table 6), 475000 nM; in assay [7] (Table 6), greater than 500000 nM. Besides, the “Selectivity (h/Sa)” value in assay [2] is listed as 26. Also, in assay [3], the “Selectivity (h/Sp)” value is reported as 17. Also, the “Selectivity MRSA” value in [4] is 11,585. Also, in assay [4], the “MIC MRSA” value turned out to be 0.041 µg/mL (≈ 0.124 µM). Further, the “Selectivity S. pyogenes” value in [5] is listed as 11,875. The “MIC S. pyogenes” value in [5] amounted to 0.04 µg/mL (≈ 0.121 µM).
As to `CCc1nc(N)nc(N)c1C#CC(C)c1cc(-c2ccccc2)ccc1OC` (centres unmarked) [Compound 146], the IC50 in [1] (setting [10]) was 100 ± 10 nM; in assay [2] it was 67 ± 5.5 nM; in [3], 26 ± 2.5 nM; in assay [6] (Table 6) it was 54000 nM; in assay [7] (Table 6) it was 77000 nM. For the same compound, in assay [2], the “Selectivity (h/Sa)” value was determined as 1.5. Besides, in assay [3], the “Selectivity (h/Sp)” value amounted to 4. Further, in assay [4], the “Selectivity MRSA” value is on record as 72. For the same compound, the “MIC MRSA” value in [4] amounted to 0.744 µg/mL (≈ 2 µM). For the same compound, the “Selectivity S. pyogenes” value in [5] is recorded as 675. Besides, the “MIC S. pyogenes” value in assay [5] came to 0.08 µg/mL (≈ 0.215 µM).
Turning to `CCc1nc(N)nc(N)c1C#CCc1cccc(-c2cccnc2)c1` [Compound 154], in assay [1] (setting [10]), the IC50 came to 290 ± 15 nM. Moreover, in [2], the “Selectivity (h/Sa)” value came out at 9 and the IC50 was 33 ± 0.5 nM. For the same compound, in [3], the “Selectivity (h/Sp)” value is reported as 6 and the IC50 was 47 ± 4.6 nM. Also, in assay [4], the “Selectivity MRSA” value is recorded as >20,000 and the “MIC MRSA” value came to 0.041 µg/mL (≈ 0.124 µM). Further, in [5], the “Selectivity S. pyogenes” value is recorded as >20,000 and the “MIC S. pyogenes” value came to 0.08 µg/mL (≈ 0.243 µM). The half-inhibitory concentration (IC50) in assay [6] (Table 6) was greater than 500000 nM. In [7] (Table 6), this compound yielded a half-maximal inhibitory concentration (IC50) greater than 500000 nM.
As to `COc1cc(C(C)C#Cc2c(C)nc(N)nc2N)cc(N2C[C@@H](C)O[C@@H](C)C2)c1` (mixture of isomers) [Compound 156], the IC50 came out at 330 ± 6 nM in assay [1] (Table 7, read-out: IC50 (hDHFR)); 68 ± 5 nM in [8] (setting [11]); 314000 nM in [6] (Table 8); 193000 nM in assay [7] (Table 8). The compound further yielded a Selectivity in assay [8] (Table 7, hDHFR vs CgDHFR) of 4.9 ± 0.4. Further, the “MIC (Cg)” value in assay [9] was determined as 6.3 µg/mL (≈ 15.9 µM). The “Selectivity Index” value in assay [9] (IC50 (MCF-10)/MIC (C. glabrata)) was 108. The “MIC C. glabrata” value in assay [9] (IsoSensitest media supplemented with 2% glucose (thymidine-depleted)) was determined as 2.9 µg/mL (≈ 7.33 µM).
On to `CCc1nc(N)nc(N)c1C#CCc1cc(-c2ccncc2)ccc1OC` [Compound 149], for which the IC50 in assay [1] (setting [10]) stood at 330 ± 12 nM. For the same compound, in assay [2], the “Selectivity (h/Sa)” value is reported as 16 and half-maximal inhibition (IC50) was put at 21 ± 1 nM. Also, in assay [3], the “Selectivity (h/Sp)” value is recorded as 17 and the IC50 is 19 ± 1.3 nM. Moreover, in [4], the “Selectivity MRSA” value is >20,000 and the “MIC MRSA” value is 0.01 µg/mL (≈ 0.0278 µM). In addition, in [5], the “Selectivity S. pyogenes” value was 3,867 and the “MIC S. pyogenes” value was 0.09 µg/mL (≈ 0.25 µM). In [6] (Table 6), this compound gave an IC50 of 217000 nM. The same compound registered an IC50 in [7] (Table 6) of 199000 nM.
Turning to `COc1cc(-c2ccc(C)cc2)cc([C@@H](C)C#Cc2c(C)nc(N)nc2N)c1` [Compound 141], the “IC50 against CgDHFR” value in assay [8] is listed as “subnanomolar”. Also, the IC50 was 0.6 ± 0.3 nM in assay [8] (setting [11]); 0.6 nM in assay [8] (Table 11, read-out: CgDHFR IC50); 410 ± 36 nM in assay [2]; 350 ± 44 nM in assay [3]; 55000 nM in assay [6] (Table 6). The “MIC (Cg)” value in [9] was 1.5 µg/mL (≈ 4.03 µM). In addition, the “Antifungal activity MIC” value in [9] (Table 11, C. glabrata) was found to be 1.5 µg/mL. Also, in [4], the “MIC MRSA” value is 0.71 µg/mL (≈ 1.91 µM). In addition, the “MIC S. pyogenes” value in assay [5] is 0.024 µg/mL (≈ 0.0644 µM).
